From ChEMBL document CHEMBL1201862, “PubChem BioAssay data set” (2004) come the findings set out here.

Structures are written as SMILES.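 96-well plates; 48 h exposure; 5 concentrations. Endpoints by linear interpolation between flanking doses. Not reached: highest tested concentration assigned. GI50 is the concentration that inhibits growth by half.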 Active and inactive are the calls of the source. Rule as the data show it: active = GI50 up to about 1.1 µM and inactive = higher.

Test systems include XF498; DLD-1; KM-20L2; Hs-578T; BT-549; 786-0; M19-MEL; HOP-18; RXF 631.
What all share (experiment): inhibition of tumour cell growth, NCI panel, 48 h

Turning to `Nc1nc(SCc2ccc([N+](=O)[O-])cc2)nc2c1ncn2C1OC(COP(=O)(O)O)C(O)C1O` (configuration not stated), the GI50 in the assay with XF498, in the assay with DLD-1 and in the assay on KM-20L2 was > 100 µM (inactive) in each case.
For `O=C(OC1C=C=CS(=O)(=O)CC#C/C=C\1)c1cnc2ccccc2n1` (configuration not stated), the GI50 with Hs-578T and in the assay with BT-549 was > 100 µM (inactive) each time.
For `COC(=O)/C=C(C)/C=C\COC1CCCCO1` (configuration not stated), the GI50 in the assay on Hs-578T, with 786-0 and with BT-549 was > 100 µM (inactive) throughout.
Regarding `COc1cc(/C=N\O)cc(/C=N/O)c1O`, the GI50 in the assay with Hs-578T was 17.6 µM (inactive); in the assay on BT-549, 45.2 µM (inactive).
As to `O=C(NN1C(=O)C(Cl)C1c1cccc(O)c1)c1ccccc1O` (configuration not stated), the GI50 in the assay with XF498 was > 100 µM (inactive); in the assay on M19-MEL, > 100 µM (inactive); in the assay with DLD-1 it was > 100 µM (inactive); with HOP-18, 24.8 µM (inactive).
As for `N#Cc1c(-c2ccc([N+](=O)[O-])cc2)cc(-c2ccc(Nc3ccnc4cc(C(F)(F)F)ccc34)cc2)nc1N`, the GI50 was 24.5 µM (inactive) with Hs-578T, 4.1 µM (inactive) in the assay on 786-0 and 37.2 µM (inactive) with BT-549.
On to `COC(=O)C12CCCN1CCC2`, for which the GI50 in the assay with 786-0 and in the assay on BT-549 was > 100 µM (inactive) each time.
Regarding `O=S(=O)(O)c1cc(/N=[N+](\[O-])c2ccc(/N=N/c3ccccc3)cc2S(=O)(=O)O)ccc1/C=C/c1ccc(/N=[N+](\[O-])c2ccc(/N=N/c3ccccc3)cc2S(=O)(=O)O)cc1S(=O)(=O)O`, the GI50 with XF498, in the assay on M19-MEL, with DLD-1 and in the assay with HOP-18 was > 100 µM (inactive) in each case.
For `CCOC(=O)c1csc(NC(=O)CN2CCOCC2)n1`, in the assay on Hs-578T, the GI50 was > 100 µM (inactive).
With `COc1cc2c(cc1OC)C(Cl)C(c1ccc(Cl)c(Cl)c1)=C2Cl` (configuration not stated), the GI50 with XF498 is < 0.01 µM (active); with M19-MEL, 9.02 µM (inactive); with KM-20L2, 8.71 µM (inactive); in the assay with HOP-18, 12.9 µM (inactive).
Consider `C[C@]12Cc3cn[nH]c3C(=O)C1CC[C@@H]1C2CC[C@@]2(C)C1CC[C@]2(C)O` (some centres not stated), for which the GI50 in the assay with XF498 was > 100 µM (inactive); in the assay with M19-MEL, > 100 µM (inactive); in the assay on DLD-1, > 100 µM (inactive); in the assay with RXF 631 it was > 100 µM (inactive); with KM-20L2, > 100 µM (inactive); in the assay on 786-0 it was 89.5 µM (inactive). Further, the GI50 in the assay with HOP-18 was > 100 µM (inactive).
Take `NC(=O)N/C=C1\C(=O)Oc2ccccc2C1=O`: the GI50 in the assay with DLD-1 is > 100 µM (inactive); in the assay with KM-20L2 it was 86.5 µM (inactive).
